In one test the test system is HEK293. The experiment in a line: membrane integrity loss in HEK cells – cell-based, fluorescence, cytotoxicity control for IDE activator project, dose response (AID 588440).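 Note: cytotoxicity by LDH release measuring loss of membrane integrity.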 In kind it is functional. As to conditions: Homo sapiens.
In test [1] the target is DNA repair protein RAD52 homolog (Homo sapiens, UniProt P43351). In kind it is functional, biochemical.
The target of test [2] is T1, Apoptotic protease-activating factor 1 (Homo sapiens, UniProt O14727).
T1 sequence (O14727 whole entry): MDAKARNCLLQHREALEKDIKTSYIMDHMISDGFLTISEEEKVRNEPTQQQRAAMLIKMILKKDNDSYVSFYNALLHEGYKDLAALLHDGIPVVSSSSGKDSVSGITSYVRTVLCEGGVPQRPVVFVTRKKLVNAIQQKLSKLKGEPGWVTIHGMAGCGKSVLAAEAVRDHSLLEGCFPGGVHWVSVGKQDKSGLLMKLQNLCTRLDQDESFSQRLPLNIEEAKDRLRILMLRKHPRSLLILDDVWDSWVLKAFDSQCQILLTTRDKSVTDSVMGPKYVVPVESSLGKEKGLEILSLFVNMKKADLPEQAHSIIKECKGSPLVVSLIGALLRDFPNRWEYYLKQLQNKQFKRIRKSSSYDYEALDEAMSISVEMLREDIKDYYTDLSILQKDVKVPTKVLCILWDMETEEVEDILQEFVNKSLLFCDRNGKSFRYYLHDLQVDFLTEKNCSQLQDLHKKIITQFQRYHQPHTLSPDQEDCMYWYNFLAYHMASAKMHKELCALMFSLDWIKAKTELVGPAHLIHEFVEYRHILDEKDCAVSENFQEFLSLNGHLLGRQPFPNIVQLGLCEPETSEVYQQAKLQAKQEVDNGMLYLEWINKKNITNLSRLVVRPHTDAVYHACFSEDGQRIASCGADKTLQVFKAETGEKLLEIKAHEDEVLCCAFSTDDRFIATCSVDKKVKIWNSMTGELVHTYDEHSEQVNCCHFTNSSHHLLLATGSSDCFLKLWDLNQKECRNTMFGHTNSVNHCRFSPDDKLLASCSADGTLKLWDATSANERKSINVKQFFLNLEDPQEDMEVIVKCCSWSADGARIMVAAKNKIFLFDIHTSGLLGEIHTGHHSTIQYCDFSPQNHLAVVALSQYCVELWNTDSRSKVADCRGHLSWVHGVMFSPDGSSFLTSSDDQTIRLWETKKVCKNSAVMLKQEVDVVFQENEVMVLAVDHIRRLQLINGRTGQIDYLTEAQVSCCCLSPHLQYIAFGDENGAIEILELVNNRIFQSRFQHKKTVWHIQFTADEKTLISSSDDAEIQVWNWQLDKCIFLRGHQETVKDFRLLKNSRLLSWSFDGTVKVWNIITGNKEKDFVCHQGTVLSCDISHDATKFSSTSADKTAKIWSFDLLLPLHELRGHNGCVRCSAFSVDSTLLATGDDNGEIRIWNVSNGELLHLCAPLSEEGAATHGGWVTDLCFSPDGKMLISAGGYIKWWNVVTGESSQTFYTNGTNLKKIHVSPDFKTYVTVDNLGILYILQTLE
In kind it is functional.

Test [3] can be described thus: HEK-293T viability loss, compound-treated – cell-based, uHTS hits, cytotoxicity control for B/T-cell NF-kB inhibitor project, dose response (AID 489019).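 Note: IC50 reflects cytotoxicity as loss of cell viability.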 In kind it is functional.
Test [4] in a line: Luminescence Cell-Based Dose Response to Identify Activators of Luciferase Translation or Activity in H4-C Neuroglioblastoma Cells. [Related pubchem assays: 1829 (Project Summary), 1814 (Primary HTS)]. In kind it is functional.
Test [5] can be described thus: Luminescence Cell-Based Dose Response to Identify Activators of 5'UTR Stem-Loop Driven Prion Protein mRNA Translation in H4-C Neuroglioblastoma Cells. [Related pubchem assays: 1829 (Project Summary), 1814 (Primary HTS)]. In kind it is functional.
Test [6] is described as follows: M. tuberculosis H37Rv growth inhibitors, H37Rv strain (AID 1626). In kind it is functional.
Test [7] has as its target Testis-specific serine/threonine-protein kinase 2 (Homo sapiens, UniProt Q96PF2). In kind it is functional.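 Note: part of the Navigating the Kinome panel, target entry STK22B.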
Test [8] addresses Lymphokine-activated killer T-cell-originated protein kinase (Homo sapiens, UniProt Q96KB5). In kind it is functional.
In test [9] the target is Serine/threonine-protein kinase DCLK1 (Homo sapiens, UniProt O15075). In kind it is functional.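 Note: affinity for DCLK1 (listed as DCAMKL1) measured as one member of a kinome-wide kinase profiling panel.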
The target of test [10] is Receptor tyrosine-protein kinase erbB-4 (Homo sapiens, UniProt Q15303). In kind it is functional.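 Note: ERBB4 member of a kinome-wide kinase profiling panel.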
Test [11] addresses 3-phosphoinositide-dependent protein kinase 1 (Homo sapiens, UniProt O15530). In kind it is functional.
The target in test [12] is Hepatocyte growth factor receptor (Homo sapiens, UniProt P08581). In kind it is functional.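 Note: kinase panel profiling across the kinome, with MET as the panel member.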
The target in test [13] is Homeodomain-interacting protein kinase 2 (Homo sapiens, UniProt Q9H2X6). In kind it is functional.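 Note: measured within a kinome-wide kinase profiling panel, HIPK2 being one panel member.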
Test [14] deals with Serine/threonine-protein kinase 3 (Homo sapiens, UniProt Q13188). In kind it is functional.
For test [15], the target named is MAP kinase-activated protein kinase 3 (Homo sapiens, UniProt Q16644). In kind it is functional.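 Note: value comes from a kinome-wide profiling panel in which MAPKAPK3 is one of the panel members.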
For test [16], the target named is Calcium/calmodulin-dependent protein kinase type 1 (Homo sapiens, UniProt Q14012). In kind it is functional.
For test [17], the target named is Cell division cycle 7-related protein kinase (Homo sapiens, UniProt O00311). In kind it is functional.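 Note: value obtained from a kinome-wide kinase panel.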
Test [18] addresses RAC-alpha serine/threonine-protein kinase (Homo sapiens, UniProt P31749). In kind it is functional.
Test [19] concerns the target Protein kinase C theta type (Homo sapiens, UniProt Q04759). The experiment in a line: Navigating the Kinome. Panel member name: PRKCQ. In kind it is functional.
Test [20] concerns the target Tyrosine-protein kinase SYK (Homo sapiens, UniProt P43405). In kind it is functional.

The term IC50 denotes the midpoint of a concentration-inhibition curve. For orientation: AC50 means the concentration giving half of the maximal activity seen. In general, EC50 refers to the concentration at which the effect is half-maximal. Broadly, the Ki is the dissociation constant of the complex between target and ligand, obtained from inhibition or displacement.

Calls of active or inactive are those of the source.

Chain of Serine/threonine-protein kinase 3 (Q13188 whole entry): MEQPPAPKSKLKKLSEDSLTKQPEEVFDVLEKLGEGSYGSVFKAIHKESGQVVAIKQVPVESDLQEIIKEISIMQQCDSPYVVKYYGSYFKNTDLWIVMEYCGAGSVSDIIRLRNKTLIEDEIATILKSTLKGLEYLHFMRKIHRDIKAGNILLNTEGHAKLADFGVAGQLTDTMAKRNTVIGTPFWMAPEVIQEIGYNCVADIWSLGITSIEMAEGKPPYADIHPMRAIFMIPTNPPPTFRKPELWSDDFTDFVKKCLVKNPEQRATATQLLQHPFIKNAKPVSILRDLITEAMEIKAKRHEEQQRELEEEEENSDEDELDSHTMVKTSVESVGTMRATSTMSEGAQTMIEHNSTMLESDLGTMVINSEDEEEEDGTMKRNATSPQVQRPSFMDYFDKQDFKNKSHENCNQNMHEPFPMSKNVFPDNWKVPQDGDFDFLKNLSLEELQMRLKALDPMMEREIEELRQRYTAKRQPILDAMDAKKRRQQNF
Chain of Serine/threonine-protein kinase DCLK1 (O15075 whole entry): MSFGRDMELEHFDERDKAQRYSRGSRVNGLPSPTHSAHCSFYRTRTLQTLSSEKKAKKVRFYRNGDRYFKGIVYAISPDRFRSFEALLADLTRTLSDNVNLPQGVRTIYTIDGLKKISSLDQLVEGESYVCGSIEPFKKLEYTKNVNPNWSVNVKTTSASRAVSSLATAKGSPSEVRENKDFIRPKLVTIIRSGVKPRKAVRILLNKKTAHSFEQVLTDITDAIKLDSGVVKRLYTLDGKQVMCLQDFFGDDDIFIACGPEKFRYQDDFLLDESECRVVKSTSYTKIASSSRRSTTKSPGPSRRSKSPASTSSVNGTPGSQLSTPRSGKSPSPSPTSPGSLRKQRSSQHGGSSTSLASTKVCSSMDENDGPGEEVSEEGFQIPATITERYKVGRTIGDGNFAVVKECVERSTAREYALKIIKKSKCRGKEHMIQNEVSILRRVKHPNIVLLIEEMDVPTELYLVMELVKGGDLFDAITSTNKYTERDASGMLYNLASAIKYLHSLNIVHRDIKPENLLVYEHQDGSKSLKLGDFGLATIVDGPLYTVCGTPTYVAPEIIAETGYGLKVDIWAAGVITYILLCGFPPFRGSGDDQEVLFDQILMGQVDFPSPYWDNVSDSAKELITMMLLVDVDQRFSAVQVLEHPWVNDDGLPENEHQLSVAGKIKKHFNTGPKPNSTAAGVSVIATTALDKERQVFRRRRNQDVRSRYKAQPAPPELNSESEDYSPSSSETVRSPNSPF
Chain of MAP kinase-activated protein kinase 3 (Q16644 whole entry): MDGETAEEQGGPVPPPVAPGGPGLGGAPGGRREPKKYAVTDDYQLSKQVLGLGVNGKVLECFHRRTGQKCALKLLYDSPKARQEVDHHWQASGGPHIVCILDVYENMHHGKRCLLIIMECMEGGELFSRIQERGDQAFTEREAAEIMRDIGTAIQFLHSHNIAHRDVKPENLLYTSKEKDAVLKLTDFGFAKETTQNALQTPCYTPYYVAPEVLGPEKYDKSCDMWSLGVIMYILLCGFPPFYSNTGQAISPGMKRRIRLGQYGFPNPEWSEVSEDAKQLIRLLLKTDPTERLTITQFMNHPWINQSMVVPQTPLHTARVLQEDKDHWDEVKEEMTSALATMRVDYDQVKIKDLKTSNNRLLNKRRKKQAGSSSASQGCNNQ
Chain of Protein kinase C theta type (Q04759 whole entry): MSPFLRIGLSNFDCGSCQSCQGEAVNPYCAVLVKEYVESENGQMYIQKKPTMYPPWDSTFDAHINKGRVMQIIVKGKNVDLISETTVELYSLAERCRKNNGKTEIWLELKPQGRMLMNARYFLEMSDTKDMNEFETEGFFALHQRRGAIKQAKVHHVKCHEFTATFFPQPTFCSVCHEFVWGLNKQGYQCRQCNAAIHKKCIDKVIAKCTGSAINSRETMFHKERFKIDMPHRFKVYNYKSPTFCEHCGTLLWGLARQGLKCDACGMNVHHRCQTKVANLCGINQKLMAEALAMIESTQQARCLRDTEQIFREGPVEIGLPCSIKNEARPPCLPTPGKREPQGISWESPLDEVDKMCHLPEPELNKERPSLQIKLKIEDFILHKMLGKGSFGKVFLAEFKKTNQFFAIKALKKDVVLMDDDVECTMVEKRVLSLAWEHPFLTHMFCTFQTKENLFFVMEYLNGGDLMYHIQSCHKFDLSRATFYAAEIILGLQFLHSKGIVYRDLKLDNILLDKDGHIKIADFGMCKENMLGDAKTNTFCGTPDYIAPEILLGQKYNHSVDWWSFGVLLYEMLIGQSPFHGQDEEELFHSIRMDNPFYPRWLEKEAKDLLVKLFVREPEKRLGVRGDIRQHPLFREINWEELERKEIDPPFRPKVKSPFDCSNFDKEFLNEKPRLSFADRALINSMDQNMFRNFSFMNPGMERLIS
Chain of Cell division cycle 7-related protein kinase (O00311 whole entry): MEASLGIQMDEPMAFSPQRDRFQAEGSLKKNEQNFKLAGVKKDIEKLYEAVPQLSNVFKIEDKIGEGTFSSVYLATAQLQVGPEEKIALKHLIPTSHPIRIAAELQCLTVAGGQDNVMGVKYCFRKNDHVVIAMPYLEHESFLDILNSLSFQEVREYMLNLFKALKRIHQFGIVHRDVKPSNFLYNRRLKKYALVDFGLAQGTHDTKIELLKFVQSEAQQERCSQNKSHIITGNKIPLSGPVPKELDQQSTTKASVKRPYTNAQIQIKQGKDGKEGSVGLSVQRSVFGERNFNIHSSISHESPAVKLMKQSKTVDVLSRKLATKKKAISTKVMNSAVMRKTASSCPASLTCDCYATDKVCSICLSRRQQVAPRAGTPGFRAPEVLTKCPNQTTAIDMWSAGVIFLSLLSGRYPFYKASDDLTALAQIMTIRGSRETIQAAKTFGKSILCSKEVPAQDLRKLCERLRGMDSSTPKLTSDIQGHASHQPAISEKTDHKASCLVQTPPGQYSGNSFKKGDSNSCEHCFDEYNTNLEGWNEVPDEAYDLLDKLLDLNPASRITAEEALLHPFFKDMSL
Chain of Testis-specific serine/threonine-protein kinase 2 (Q96PF2 whole entry): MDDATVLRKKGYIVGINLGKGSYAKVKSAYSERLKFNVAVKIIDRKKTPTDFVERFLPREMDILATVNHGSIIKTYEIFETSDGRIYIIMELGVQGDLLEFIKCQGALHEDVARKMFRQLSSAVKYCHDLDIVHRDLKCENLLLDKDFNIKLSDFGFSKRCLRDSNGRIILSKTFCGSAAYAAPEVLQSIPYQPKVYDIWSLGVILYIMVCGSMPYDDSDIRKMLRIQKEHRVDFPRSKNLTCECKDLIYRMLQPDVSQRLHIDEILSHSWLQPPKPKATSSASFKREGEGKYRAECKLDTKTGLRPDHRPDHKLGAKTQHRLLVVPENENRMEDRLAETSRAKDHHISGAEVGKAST
Chain of Calcium/calmodulin-dependent protein kinase type 1 (Q14012 whole entry): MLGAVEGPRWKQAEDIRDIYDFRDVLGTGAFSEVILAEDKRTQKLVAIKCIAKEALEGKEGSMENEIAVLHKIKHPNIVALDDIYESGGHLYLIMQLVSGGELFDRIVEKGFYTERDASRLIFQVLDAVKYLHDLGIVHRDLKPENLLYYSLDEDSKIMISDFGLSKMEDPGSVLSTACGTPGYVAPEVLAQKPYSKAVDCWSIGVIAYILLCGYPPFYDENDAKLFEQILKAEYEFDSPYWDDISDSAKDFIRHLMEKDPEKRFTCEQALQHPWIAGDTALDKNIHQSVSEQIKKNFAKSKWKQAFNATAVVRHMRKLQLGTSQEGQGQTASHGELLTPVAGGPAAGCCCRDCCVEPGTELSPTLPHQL
Chain of DNA repair protein RAD52 homolog (P43351 whole entry): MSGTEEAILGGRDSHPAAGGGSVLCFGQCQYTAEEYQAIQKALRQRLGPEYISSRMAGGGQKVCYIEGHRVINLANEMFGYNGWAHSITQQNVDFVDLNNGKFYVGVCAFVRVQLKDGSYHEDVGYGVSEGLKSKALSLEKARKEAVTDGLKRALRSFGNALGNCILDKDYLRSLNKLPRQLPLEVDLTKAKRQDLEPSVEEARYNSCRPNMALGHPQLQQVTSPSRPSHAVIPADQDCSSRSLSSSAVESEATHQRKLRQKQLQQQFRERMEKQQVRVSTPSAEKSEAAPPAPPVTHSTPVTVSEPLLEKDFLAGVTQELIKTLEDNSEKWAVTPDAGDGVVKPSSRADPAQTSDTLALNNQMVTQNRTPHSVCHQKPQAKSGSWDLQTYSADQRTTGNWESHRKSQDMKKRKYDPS
Chain of Lymphokine-activated killer T-cell-originated protein kinase (Q96KB5 whole entry): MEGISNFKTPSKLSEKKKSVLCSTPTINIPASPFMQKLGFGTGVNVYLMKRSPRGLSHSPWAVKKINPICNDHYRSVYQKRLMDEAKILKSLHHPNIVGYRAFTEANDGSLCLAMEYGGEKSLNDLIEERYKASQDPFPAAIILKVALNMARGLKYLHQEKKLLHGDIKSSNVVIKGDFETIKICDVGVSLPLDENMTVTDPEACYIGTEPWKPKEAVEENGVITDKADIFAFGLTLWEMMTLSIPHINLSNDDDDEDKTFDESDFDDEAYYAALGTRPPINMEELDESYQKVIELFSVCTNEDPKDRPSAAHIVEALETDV
Chain of RAC-alpha serine/threonine-protein kinase (P31749 whole entry): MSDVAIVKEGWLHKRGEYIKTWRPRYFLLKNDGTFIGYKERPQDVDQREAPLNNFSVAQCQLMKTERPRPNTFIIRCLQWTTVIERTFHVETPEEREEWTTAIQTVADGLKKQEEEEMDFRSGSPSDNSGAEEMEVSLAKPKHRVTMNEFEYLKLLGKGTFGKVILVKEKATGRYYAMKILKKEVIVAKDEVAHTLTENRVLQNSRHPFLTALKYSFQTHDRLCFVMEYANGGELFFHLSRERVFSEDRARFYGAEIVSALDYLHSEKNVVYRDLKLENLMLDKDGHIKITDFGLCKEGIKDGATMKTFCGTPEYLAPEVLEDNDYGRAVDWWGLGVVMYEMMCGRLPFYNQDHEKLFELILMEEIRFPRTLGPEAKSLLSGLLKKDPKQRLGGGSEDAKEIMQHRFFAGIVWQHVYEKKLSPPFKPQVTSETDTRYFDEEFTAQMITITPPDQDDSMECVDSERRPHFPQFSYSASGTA

Turning to `CCCCCCCCCCOC(=O)C[n+]1c(COc2ccc(C)cc2)n(C)c2ccccc21`, the half-maximal inhibitory concentration (IC50) is 7.28 µM (active) with HEK293 and 10.8 µM (active) in [2]. The AC50 in test [1] is 9.47 µM (active).

On to `CCN1/C(=C\c2ccc3ccccc3[n+]2CC)Sc2cc(C)ccc21`, for which the IC50 in test [3] is > 80 µM (inactive). The EC50 in test [4] and in test [5] was > 12 µM (not active) throughout.

With `O=C(CCl)Oc1ccc2occ(C(=O)c3cccs3)c2c1`, the IC50 in [6] is > 100 µM (active).

For `CN1CCN(c2nc(C3=C(c4c[nH]c5ccccc45)C(=O)NC3=O)c3ccccc3n2)CC1` [SOTRASTAURIN], the Ki is > 1.58 µM (inactive) in [7]; > 10 µM (inactive) in test [8]; > 10 µM (inactive) in test [9]; > 3.98 µM (inactive) in [10]; 1.58 µM (active) in test [11]; > 2.51 µM (inactive) in test [12]. Moreover, the Ki is > 3.16 µM (inactive) in [13]; 0.126 µM (active) in [14]; > 10 µM (inactive) in [15]; > 6.31 µM (inactive) in [16]; > 1.26 µM (inactive) in test [17]; 0.501 µM (active) in test [18]. Besides, the results for the Ki in test [19] and in test [20] were 0.000631 µM (active) and > 1.58 µM (inactive), respectively.

The record behind these values is ChEMBL document CHEMBL1201862, “PubChem BioAssay data set” (2004).
